The IC50 is the midpoint of a concentration-inhibition curve. By solubility is commonly meant the concentration that dissolves in the medium under given conditions. Low values mean a poorly soluble substance, high ones a readily soluble substance.

Data set [1] can be described thus: Taxol release from protaxols in aqueous buffer. The class given is physicochemical. The following applies: aqueous buffer. On the procedure: The derivatives in which the C-7 hydroxyl group was acetylated were extremely unstable in aqueous media losing the C-7 substituent very rapidly. The stability of the synthesized compounds was examined at various pH's and temperatures. […] Table 1A includes the half-lives of six of these compounds at pH 7.5 and 9. […] This illustrates the ability to fine-tune the rate of release of taxol to a desired set of conditions using simple chemical principles.
Protaxol 5 was dissolved in dimethylsulphoxide (DMSO) at 25° C. and immediately added to the appropriate phosphate buffer solution at the specified temperature. Aliquots were analysed using a Waters Maxima system HPLC instrument equipped with auto-injector (3.9×300 mm C18 column equipped with a precolumn; flow rate, 1.5 ml min^-1; eluant, gradient A-B, where A is 80% 100 mM ammonium acetate, buffer pH 6.0, and B is 100% methanol; ultraviolet detector). The per cent taxol released was determined from the relative areas of the peaks corresponding to protaxol 5 and taxol (the conversion was clean, and it was assumed that the two compounds have equal molar extinction coefficients).

Data set [2] concerns OVCAR-3 (ovarian carcinoma). Kind of data set: Cytotoxicity (sulphorhodamine B), cancer cell line, Table 1B. Format: cell-based. The following applies: Homo sapiens, OVCAR-3, 72 h.
Procedure: (§1) The cytotoxicities were determined using the sulphorhodamine B assay method (Skehan, P. et al. J. Nat. Canc. Inst. 82, 1107 (1990)).
Data set [3] deals with MOLT-4 (T-cell leukaemia). The description is as above. As to conditions: Homo sapiens. The class given is cell-based.
Procedure: as §1
Data set [4] relates to SIHA (cervix carcinoma). The data set is described as above. The following applies: Homo sapiens. The class given is cell-based.
Procedure: as §1
Data set [5] deals with HL-60 (promyel carcinoma). The description is as above. Format: cell-based. As to conditions: Homo sapiens.
Procedure: as §1
Data set [6] concerns BT-549 (breast carcinoma). The data set is described as above. Format: cell-based. The following applies: Homo sapiens.
Procedure: as §1
Data set [7] relates to BALB/c 3T3 (normal mouse embryo). The data set is described as follows: Cytotoxicity (sulphorhodamine B), normal cell line, Table 1B. The class given is cell-based.
Procedure: as §1
Data set [8] concerns HT-29 (colon carcinoma). Kind of data set: Cytotoxicity (sulphorhodamine B), cancer cell line, Table 1B. The class given is cell-based. As to conditions: Homo sapiens.
Procedure: as §1
For data set [9], the system named is Capan-1 (pancreatic). The data set is described as above. Format: cell-based. The following applies: Homo sapiens.
Procedure: as §1
Data set [10] deals with 786-0 (renal cell carcinoma). Described as above. The class given is cell-based. The following applies: Homo sapiens.
Procedure: as §1
In data set [11] the test system is PC-3 (prostate carcinoma). Described as above. Format: cell-based. As to conditions: Homo sapiens.
Procedure: as §1
The subject of data set [12] is NHDF (normal human skin). The data set is described as follows: Cytotoxicity (sulphorhodamine B), normal cell line, Table 1B. Format: cell-based.
Procedure: as §1
In data set [13] the test system is UCLA-P-3 (lung carcinoma). The data set is described as follows: Cytotoxicity (sulphorhodamine B), cancer cell line, Table 1B. The class given is cell-based. The following applies: Homo sapiens.
Procedure: as §1
For data set [14], the system named is L1210 (mouse leukaemia). Described as above. Format: cell-based.
Procedure: as §1
In data set [15] the test system is CHO (Chinese hamster ovary). The data set is described as follows: Cytotoxicity (sulphorhodamine B), normal cell line, Table 1B. Format: cell-based. As to conditions: Cricetulus griseus.
Data set [16] has as its system CHO (normal human mammary). The description is as above. Format: cell-based.
Data set [17] relates to H322 (lung carcinoma). Kind of data set: Cytotoxicity (sulphorhodamine B), cancer cell line, Table 1B. The class given is cell-based.
Procedure: as §1
Data set [18] deals with SK (melanoma). The data set is described as above. Format: cell-based.
Procedure: as §1
Data set [19] has as its system RPMI-7666 (normal human PBLs). Kind of data set: Cytotoxicity (sulphorhodamine B), normal cell line, Table 1B. Format: cell-based.
Procedure: as §1
The subject of data set [20] is MCF-7 (breast carcinoma). Kind of data set: Cytotoxicity (sulphorhodamine B), cancer cell line, Table 1B. The class given is cell-based. The following applies: Homo sapiens.
Procedure: as §1
Data set [21] in a line: Water solubility in D2O by 1H NMR. The following applies: d2o. On the procedure:
The solubilities of the synthesized protaxols in D2 O were determined by 1H NMR spectroscopy.
The resulting mixture was centrifuged for 20 minutes and the supernatant saturated solution was analysed by ^1 H NMR spectroscopy using a Bruker AMX-400 instrument and methanol or pyridine as internal standard. The concentration of the compound was determined by comparing several signals with the CH3 signal of methanol or the NCH signal of pyridine.

The mark [22] stands for this setting: pH 7.5, 37° C., read-out: t1/2 (pH 7.5), 50% taxol release.
[23] abbreviates: pH 9, 37° C., read-out: t1/2 (pH 9), 50% taxol release.

≈ marks a conversion by molar mass, not a printed value. Read-outs that look alike come from different tables or passages of the source.

As for `CC(=O)O[C@H]1C(=O)[C@@]2(C)[C@H]([C@H](OC(=O)c3ccccc3)[C@]3(O)C[C@H](OC(=O)[C@H](OC(=O)OCCS(=O)(=O)c4ccccc4)[C@@H](NC(=O)c4ccccc4)c4ccccc4)C(C)=C1C3(C)C)[C@]1(OC(C)=O)CO[C@@H]1C[C@@H]2O`, the half-life in data set [1] (setting [22]) was over 8.33 h; in data set [1] (setting [23]) it was 1.1 h.
Consider `CC(=O)O[C@H]1C(=O)[C@@]2(C)[C@H]([C@H](OC(=O)c3ccccc3)[C@]3(O)C[C@H](OC(=O)[C@H](OC(=O)OCCSc4ccccc4)[C@@H](NC(=O)c4ccccc4)c4ccccc4)C(C)=C1C3(C)C)[C@]1(OC(C)=O)CO[C@@H]1C[C@@H]2O` [Compound 7], for which the IC50 in [2] was under 1 nM; in [3] (MOLT-4, 72 h), under 1 nM; in data set [4] (SiHa, 72 h), 10000 nM; in data set [5] (HL-60, 72 h) it was under 1 nM; in data set [6] (BT-549, 72 h) it was under 1 nM; in data set [7] (BALB/c3T3, 72 h), 10000 nM. The IC50 is under 1 nM in data set [8] (HT-29, 72 h); under 1 nM in data set [9] (CAPAN-1, 72 h); 10000 nM in data set [10] (786-0, 72 h); 1000 nM in [11] (72 h); 1000 nM in data set [12] (72 h); under 1 nM in data set [13] (UCLA P-3, 72 h). For the same compound, the IC50 in data set [14] (L1210, 72 h) came to 10000 nM; in data set [15] (72 h) it was 100000 nM; in [16] (Homo sapiens, 72 h) it was 100000 nM; in data set [17] (NCI-H322, 72 h) it was 1 nM; in data set [18] (72 h), 10000 nM; in data set [19] (72 h) it was 100000 nM. For the same compound, the IC50 in data set [20] (MCF7, 72 h) came to 10000 nM.
As for `CC(=O)O[C@H]1C(=O)[C@]2(C)[C@@H](OC(=O)COCC(=O)O)C[C@H]3OC[C@@]3(OC(C)=O)[C@H]2[C@H](OC(=O)c2ccccc2)[C@]2(O)C[C@H](OC(=O)[C@H](OC(=O)COCC(=O)O)[C@@H](NC(=O)c3ccccc3)c3ccccc3)C(C)=C1C2(C)C` [Compound 11], the IC50 was under 1 nM in data set [3] (MOLT-4, 72 hours, read-out: IC50); 10000 nM in [4] (SIHA, 72 hours, read-out: IC50); under 1 nM in [5] (HL-60, 72 hours, read-out: IC50); under 1 nM in data set [6] (BT-549, 72 hours, read-out: IC50); 1000 nM in data set [7] (BALB/c3T3, BALB/c 3T3, 72 hours, read-out: IC50); under 1 nM in [8] (HT-29, 72 hours, read-out: IC50). Moreover, the 50% inhibitory concentration (IC50) in [9] (Capan-1, 72 hours, read-out: IC50) is under 1 nM; in data set [10] (786-0, 72 hours, read-out: IC50) it was 1000 nM; in [11] (PC-3, 72 hours, read-out: IC50), 1000 nM; in data set [12] (72 hours, read-out: IC50), 1000 nM; in data set [13] (UCLA-P-3, 72 hours, read-out: IC50) it was 1 nM; in [14] (L1210, 72 hours, read-out: IC50), 1000 nM. Also, the half-inhibitory concentration (IC50) in data set [15] (CHO, Chinese hamster ovary, 72 hours, read-out: IC50) was determined as 100000 nM; in data set [16] (CHO, normal human mammary, 72 hours, read-out: IC50), 100000 nM; in data set [17] (NCI-H322, H322, 72 hours, read-out: IC50), 1 nM; in data set [18] (SK melanoma, 72 hours, read-out: IC50) it was 10000 nM; in data set [19] (RPMI-7666, 72 hours, read-out: IC50) it was 100000 nM; in data set [20] (MCF7, CF-7 / MCF-7, 72 hours, read-out: IC50), 10000 nM.
On to `CC(=O)O[C@H]1C(=O)[C@]2(C)[C@@H](OC(=O)CSCC(=O)O)C[C@H]3OC[C@@]3(OC(C)=O)[C@H]2[C@H](OC(=O)c2ccccc2)[C@]2(O)C[C@H](OC(=O)[C@H](OC(=O)CSCC(=O)O)[C@@H](NC(=O)c3ccccc3)c3ccccc3)C(C)=C1C2(C)C` [Compound 12], for which the IC50 is under 1 nM in [3] (MOLT-4, 72 h); 10000 nM in [4] (SiHa, 72 h); under 1 nM in data set [5] (HL-60, 72 h); under 1 nM in data set [6] (BT-549, 72 h); 10000 nM in data set [7] (BALB/c3T3, 72 h); 100 nM in [8] (HT-29, 72 h). The IC50 is under 1 nM in data set [9] (CAPAN-1, 72 h); 1000 nM in data set [10] (786-0, 72 h); 1000 nM in data set [11] (72 h); 1000 nM in [12] (72 h); 1 nM in [13] (UCLA P-3, 72 h); 1000 nM in data set [14] (L1210, 72 h). Also, the IC50 in data set [15] (72 h) is 100000 nM; in data set [16] (Homo sapiens, 72 h) it was 100000 nM; in data set [17] (NCI-H322, 72 h), 100 nM; in [18] (72 h), 10000 nM; in [19] (72 h), 100000 nM; in data set [20] (MCF7, 72 h), 10000 nM.
In the case of `CC(=O)O[C@H]1C(=O)[C@@]2(C)[C@H]([C@H](OC(=O)c3ccccc3)[C@]3(O)C[C@H](OC(=O)[C@H](OC(=O)COCC(=O)O)[C@@H](NC(=O)c4ccccc4)c4ccccc4)C(C)=C1C3(C)C)[C@]1(OC(C)=O)CO[C@@H]1C[C@@H]2O` [drawing 5], the half-life in data set [1] (setting [22]) was over 8.33 h; in data set [1] (setting [23]) it was 1.83 h. In [21], this compound showed a solubility of 840 µg/mL (≈ 866 µM).
Take `CC(=O)O[C@H]1C(=O)[C@@]2(C)[C@H]([C@H](OC(=O)c3ccccc3)[C@]3(O)C[C@H](OC(=O)[C@H](OC(=O)CSCC(=O)O)[C@@H](NC(=O)c4ccccc4)c4ccccc4)C(C)=C1C3(C)C)[C@]1(OC(C)=O)CO[C@@H]1C[C@@H]2O` [drawing 6]: the half-life in data set [1] (setting [22]) was over 8.33 h; in [1] (setting [23]), 5 h. In data set [21], the solubility came out at 350 µg/mL (≈ 355 µM).
For `CC(=O)O[C@H]1C(=O)[C@@]2(C)[C@H]([C@H](OC(=O)c3ccccc3)[C@]3(O)C[C@H](OC(=O)[C@H](OC(=O)CS(=O)(=O)CC(=O)O)[C@@H](NC(=O)c4ccccc4)c4ccccc4)C(C)=C1C3(C)C)[C@]1(OC(C)=O)CO[C@@H]1C[C@@H]2O` [drawing 7] the same measures were over 8.33 h, 0.5 h and 1200 µg/mL (≈ 1180 µM).
As for `CC(=O)O[C@H]1C(=O)[C@@]2(C)[C@H]([C@H](OC(=O)c3ccccc3)[C@]3(O)C[C@H](OC(=O)[C@H](OC(=O)OCCS(=O)(=O)c4ccc([N+](=O)[O-])cc4)[C@@H](NC(=O)c4ccccc4)c4ccccc4)C(C)=C1C3(C)C)[C@]1(OC(C)=O)CO[C@@H]1C[C@@H]2O` [drawing 11], the figures for the half-life in [1] (setting [22]) and in data set [1] (setting [23]) were over 8.33 h and 0.117 h, respectively.
In the same order, the values of `CC(=O)O[C@H]1C(=O)[C@@]2(C)[C@H]([C@H](OC(=O)c3ccccc3)[C@]3(O)C[C@H](OC(=O)[C@H](OC(=O)OCCS(=O)(=O)c4ccc(N)cc4)[C@@H](NC(=O)c4ccccc4)c4ccccc4)C(C)=C1C3(C)C)[C@]1(OC(C)=O)CO[C@@H]1C[C@@H]2O` [drawing 12] are over 8.33 h and 1.68 h.
For the compound `CC(=O)O[C@H]1C(=O)[C@]2(C)[C@@H](OC(=O)COCC(=O)O)C[C@H]3OC[C@@]3(OC(C)=O)[C@H]2[C@H](OC(=O)c2ccccc2)[C@]2(O)C[C@H](OC(=O)[C@H](OC(=O)COCC(=O)O)[C@@H](NC(=O)c3ccccc3)c3ccccc3)C(C)=C1C2(C)C` [drawing 13], the solubility in [21] was determined as 500 µg/mL (≈ 460 µM).
As for `CC(=O)O[C@H]1C(=O)[C@]2(C)[C@@H](OC(=O)CSCC(=O)O)C[C@H]3OC[C@@]3(OC(C)=O)[C@H]2[C@H](OC(=O)c2ccccc2)[C@]2(O)C[C@H](OC(=O)[C@H](OC(=O)CSCC(=O)O)[C@@H](NC(=O)c3ccccc3)c3ccccc3)C(C)=C1C2(C)C` [drawing 14], the concentration in solution in [21] (solubility) was 460 µg/mL (≈ 411 µM).
